Experimental data from patent US20040033252A1, “Agents for recoverying from or preventing fatigue in the central nerve system and foods for recovering from or preventing fatigue” (priority 2000, published 2004).

Experiments:
analbuminemia rats = assay: Treadmill running test to exhaustion in analbuminemia rats (fatigue test); type: in vivo, rat; conditions: NAR; for Running time up to exhaustion: i.p., BCH 8 mg/kg and BCAA 250 mg/kg 1 h before running, albumin 1 g/kg 1.5 h before, mean ± SEM
Procedure: Three-week-old female analbuminemia rats (Japan SLC) that genetically lacked albumin in their blood plasma, which had been raised under light and dark cycles of 7:00 to 19:00 (light cycle) at room temperature 22° C., were subjected to the fatigue tests. Prior to the fatigue tests, the analbuminemia rats were subjected to training (20 m/min, 7% inclination) for 30 minutes, four times a week, during a predetermined period of time in 13:00 to 15:00, and this training lasted for four weeks so as to adapt them to running on the treadmill. After the training had been completed, all the analbuminemia rats (weight 210 to 255 g) were subjected to exhaustion tests on the treadmill under the same conditions, and time up to an exhaustion state was measured.
The rats, which were divided into four groups, were respectively treated with physiological saline (made by Otsuka Pharmaceutical Co., Ltd “0.9% physiological saline”), the BCH (made by Sigma K.K., NoA7902), the BCAA and albumin (made by Sigma K.K. A-6272 (Fraction V)). The dose of physiological saline was set to 5 ml/kg, that of the BCH was 8 mg/kg and that of the BCAA was 250 mg/kg, and these were given into the abdominal cavity one hour prior to the start of the running tests. Here, BCH, BCAA and albumin were respectively dissolved in physiological saline, and then administered. The dose of albumin was set to 1 g/kg, and given into the abdominal cavity one and half hours prior to the start of […]. […] These doses were determined so as to obtain sufficient effects, and in the case of actual doses to the human being, these can be changed appropriately depending on various factors.
(§1) These measured data were obtained by a analysis of variance (ANOVA) in one-way layout of Fisher's PLSD test by using multiple comparisons and repeated measurements, based upon the standard error. Next, the data were classified based upon running times, and analyzed by the Student's t-test based upon observation with paired t-test in the total effects of the BCAA and BCH treatment groups.

[1] = test system: tryptophan-deficient rats; assay: Treadmill running test to exhaustion in tryptophan-deficient rats given tryptophan-added food (Evaluation Test 3); type: in vivo, rat
Description: Three-week-old female rats of Sprague-Dawley-type (each rat: 50 g) were raised for one month to a weight of 200 g [fed with normal food of AIN93G for one month (standard refined feed, made by Oriental Yeast, Co., Ltd., with the tryptophan being contained at 2.3 g/kg)], and from this time on, these were fed with the tryptophan-deficient food (adjusted feed in which only the tryptophan was removed from the above-mentioned AIN93G, with corn starch being used for compensating for the corresponding portion) for 16 days to form the tryptophan-deficient rats. Amino acids, contained in the normal food AIN93G, were respectively manufactured by AJINOMOTO CO., INC., and the respective contents (g) in 1 kg of feed were: alanine 5.6, arginine 6.8, aspartic acid 13.1, cystine 3.9, glutamic acid 39.6, glycine 3.4, histidine 5.6, isoleucine 10.1, leucine 17.5, lysine 14.9, methionine 5.6, phenyl alanine 9.5, proline 21.6, serine 9.7, threonine 7.7, tryptophan 2.3 (only contained in the tryptophan-containing food), tyrosine 10.4, and valine 12.6 (each of the amino acids having a purity of 100%). These rats were subjected to training for 30 minutes at a speed of 20 m/min (inclination: 7%) by treadmill running practice, three times a week, which started at the age of 3 weeks old, and lasted for 2 months. After the training had been completed, the rats were subjected to running loads on the treadmill at a speed of 20 m/min (inclination: 7%) up to exhaustion, and the running time was evaluated as the fatigue tests shown below. […] The evaluation was made by using inter-group comparisons (with paired t-test) of a Student's t-test.
To the tryptophan-deficient rats that had been subjected to the above-mentioned training were respectively given tryptophan-added food (AIN93G to which 2.3 g/kg of the tryptophan was added), and were then given physiological saline, a mixture of the BCH and the BCAA, the BCH and the BCAA, and comparison tests were carried out among the four groups. […]

[2] = test system: striatal synaptosome of analbuminemia rats; assay: Tryptophan and metabolites in striatal synaptosome immediately after exhaustion (HPLC, electrochemical detector); type: in vivo, rat; conditions: for Concentration of 5-HIAA in striatal synaptosome / Concentration of 5-HT in striatal synaptosome / Concentration of 5-HTP in striatal synaptosome / Concentration of tryptophan in striatal synaptosome: NAR, immediately after exhaustion, mean ± SEM
Procedure: The head of each of the rats was sacrificed by decapitation immediately after the training so that the striatal synaptosome was separated, and tryptophan(Trp), 5-hydroxytryptophan (5-HTP), 5-hydroxytryptamin (5-HT) and 5-hydroxyindoleacetic acid (5-HIAA) were measured by high-performance liquid chromatography using an electrochemical detector. Moreover, the protein level in the P2 fraction was measured in accordance with the method of Lowry et al. (J. Protein measurements with the Folin phenol reagent, J. Biol. Chem. 193: 265-275; 1951).
as §1

[3] = test system: tryptophan-deficient rats; assay: Treadmill running test to exhaustion in tryptophan-deficient rats (Evaluation Test 2); type: in vivo, rat; conditions: i.p. 1 h before running, BCH 150 mg/kg, BCAA 250 mg/kg, mean ± standard error
Description: Three-week-old female rats of Sprague-Dawley-type (each rat: 50 g) were raised for one month to a weight of 200 g [fed with normal food of AIN93G for one month (standard refined feed, made by Oriental Yeast, Co., Ltd., with the tryptophan being contained at 2.3 g/kg)], and from this time on, these were fed with the tryptophan-deficient food (adjusted feed in which only the tryptophan was removed from the above-mentioned AIN93G, with corn starch being used for compensating for the corresponding portion) for 16 days to form the tryptophan-deficient rats. Amino acids, contained in the normal food AIN93G, were respectively manufactured by AJINOMOTO CO., INC., and the respective contents (g) in 1 kg of feed were: alanine 5.6, arginine 6.8, aspartic acid 13.1, cystine 3.9, glutamic acid 39.6, glycine 3.4, histidine 5.6, isoleucine 10.1, leucine 17.5, lysine 14.9, methionine 5.6, phenyl alanine 9.5, proline 21.6, serine 9.7, threonine 7.7, tryptophan 2.3 (only contained in the tryptophan-containing food), tyrosine 10.4, and valine 12.6 (each of the amino acids having a purity of 100%). […] After the training had been completed, the rats were subjected to running loads on the treadmill at a speed of 20 m/min (inclination: 7%) up to exhaustion, and the running time was evaluated as the fatigue tests shown below. […]

rats = conditions: tryptophan 1 mM/30 min continuously injected into the brain; cited from earlier work

| Compound | Extension of running time relative to physiological saline (analbuminemia rats; from Table 1) | Running time up to exhaustion (analbuminemia rats) [min] | Running time of single rats that have not reached exhaustion ([1]; BCH only-administration, two cases) | Running time up to exhaustion ([1]; tryptophan-deficient rats given tryptophan-added food, doses as in evaluation test 2, i.p. 1 h before, mean ± standard error, values >542 set as 542) [min] | Running-time difference versus physiological saline group (average-value comparison) ([1]; tryptophan-deficient rats given tryptophan-containing food, not statistically significant) | Change in uptake of 5-HTP into striatal synaptosome versus physiological saline group ([2]; BCAA and BCH treated groups totaled, group B (time to exhaustion 190 to 271 minutes), p<0.025) [%] | Change in uptake of tryptophan into striatal synaptosome versus physiological saline group ([2]; BCAA and BCH treated groups totaled, group B (time to exhaustion 190 to 271 minutes), p<0.05) [%] | Concentration of 5-HIAA in striatal synaptosome [2] [pmol/mg protein] | Concentration of 5-HT in striatal synaptosome [2] [pmol/mg protein] | Concentration of 5-HTP in striatal synaptosome [2] [pmol/mg protein] | Concentration of tryptophan in striatal synaptosome [2] [pmol/mg protein] | Running time up to exhaustion [3] [min] | Onset of fatigue in the central nervous system or muscles (rats) |
| --- | --- | --- | --- | --- | --- | --- | --- | --- | --- | --- | --- | --- | --- |
| NC1(C(=O)O)CC2CCC1C2 (stereo not drawn) [BCH, 2-aminobicyclo-[2,2,1]-heptane-2-carboxylic acid] | approximately twice as long | 188 ± 33 | 524 minutes and not less than 524 minutes | 428 ± 45 | approximately 40 minutes | −23 | −19 | 3.58 ± 0.21 | 5.20 ± 0.79 | 1.25 ± 0.17 | 53.43 ± 10.50 | 308 ± 22 | – |
| N[C@@H](Cc1c[nH]c2ccccc12)C(=O)O [tryptophan] | – | – | – | – | – | – | – | – | – | – | – | – | exhibit the fatigue in the central nervous system or muscles in very early stage |
| Albumin: albumin made by Sigma K.K. A-6272 (Fraction V) | – | 96 ± 22 | – | – | – | – | – | 3.30 ± 0.06 | 5.00 ± 0.47 | 1.45 ± 0.18 | 52.41 ± 8.97 | – | – |
